Experiments:
[1] = test system: mice following controlled cortical impact injury (CCI); experiment: Morris watermaze, place learning version, after controlled cortical impact injury; assay type: in vivo, Male C57Bl/6 mice
Procedure: (§1) Male C57Bl/6 mice (20-25 g) were obtained from Taconic Farms (Germantown, N.Y.) and housed in an area directly adjoining surgical and behavioral rooms for at least 1 week prior to any procedures. All mice were maintained at a constant temperature (22±2° C.) and a 12 hr light/dark cycle, with lights on at 6 am and all behavioral testing performed during the light cycle. Food and water were available ad libitumn.
(§2) Surgical anesthesia was induced and maintained with 4% and 2% isoflurane respectively, using a flow rate of 1.0-1.5 l oxygen per minute. Depth of anesthesia was assessed by monitoring respiration rate and palpebral and pedal-withdrawal reflexes. The animal was then placed onto a heated pad and core body temperature was monitored and maintained at 38+/−0.2° C. The head was mounted in a stereotaxic frame and the surgical site clipped and prepared with a series of three Nolvasan scrubs followed by sterile saline rinses. A 10 mm mid-line incision was made over the skull, the skin and fascia reflected, and a 4 mm craniotomy made on the central aspect of the left parietal bone with a tissue punch (Roboz, USA). Great care was taken with the removal of the parietal bone to avoid injury to the underlying dura mater which was continuously bathed in sterile normal saline warmed to 37.5° C. The impounder tip of the pneumatic injury device was cleaned with a pad, soaked in absolute alcohol, positioned to the surface of the exposed dura and automatically withdrawn the 44 mm stroke distance. Following injury at a moderate (6.0 m/s velocity, 1 mm tissue deformation depth) level, the incision was closed with interrupted 6-0 silk sutures, anaesthesia was discontinued and the mouse was placed into a heated cage to maintain normothermia for 45 minutes post-injury. All animals were monitored carefully for at least 4 hours post-surgery and then daily. To minimize variation between animals due to anaesthesia during acute neurological testing, 20 minutes was allowed for surgery and 5 minutes for suturing for each animal.
[…] The values for n represents the number of mice in the particular treatment group. The investigator was blinded to drug treatment both at the time of surgery and for neurological and behavioral scoring.
The Morris watermaze (Morris, 1984, J. Neurosci. Meth. 22:47-60) is employed to assess spatial learning by training mice to locate a hidden, submerged platform using extramaze visual information. The apparatus consists of a large, white circular pool (900 mm diameter, 500 mm high, water temperature 24±1° C.) with a plexiglass platform 76 mm diameter painted white and submerged 15 mm below the surface of water (225 mm high) which is rendered opaque with the addition of dilute, white, non-toxic paint. During training, the platform is hidden in one quadrant 14 cm from the side wall. The mouse is gently placed into the water facing the wall at one of four randomly-chosen locations separated by 90 degrees. The latency to find the hidden platform within a 90 second criterion time is recorded by a blinded observer. […]
Continuous variables compared across groups are examined using an analysis of variance (ANOVA) followed by Bonferroni correction (acute reflexes). Continuous variables subjected to repeated measurements over a period of time (beam walking, Morris water maze) are analyzed using a repeated measurements ANOVA followed by Tukey's pairwise comparison at each time point. […]

[2] = test system: mice following controlled cortical impact injury (CCI); experiment: Beam walking task after controlled cortical impact injury (chronic neurological recovery); assay type: in vivo, Male C57Bl/6 mice
Procedure: as §1
The injury device consisted of a microprocessor-controlled pneumatic impactor with a 3.5 mm diameter tip. The impactor is vertically mounted on a mill table (Sherline, USA) which allows for precise adjustment in the vertical plane above the mouse head, which itself is secured to a stereotaxic apparatus (David Kopf Instruments, CA) attached to the instrument. The core rod of a linear voltage differential transducer (LVDT, Serotec, USA) is attached to the lower end of the impactor to allow measurement of velocities between 3.0 and 9.0 m/s. Velocity of the impactor is controlled by fine tuning both positive and negative (back) air pressures. An oscilloscope (Tektronix, USA) records the time/displacement curve produced by the downward force on the LVDT, allowing precise measurement of the impactor velocity.
as §2
Conscious mice were placed in a mouse restrainer and injected via the lateral tail vein with either normal saline (injured controls; n=6), 1 mg/kg Compound 2a (n=8), Compound 10b (n=6), Compound 11b (n=6) or Compound 14c (n=6) at 30 minutes following controlled cortical impact injury (CCI). The values for n represents the number of mice in the particular treatment group. The investigator was blinded to drug treatment both at the time of surgery and for neurological and behavioral scoring.
Chronic neurological recovery was evaluated for all animals using a beam walking task, a method which is particularly good at discriminating fine motor coordination differences between injured and sham-operated animals. The device consisted of a narrow wooden beam 6 mm wide and 120 mm in length which was suspended 300 mm above a 60 mm-thick foam rubber pad. The mouse was placed on one end of the beam and the number of footfaults for the right hindlimb recorded over 50 steps counted in either direction on the beam. A basal level of competence at this task was established before surgery with an acceptance level of <10 faults per 50 steps. […]

## O=C1NC2(CCCCC2)C(=O)N2CCC[C@@H]12 [Compound 2a, Cyclo[(1-Amino-1-Cyclohexane-Carboxylic Acid)-Pro]]
[1]; 1.0 mg/kg at 30 min following CCI, day 8, p<0.001
  latency to find hidden platform (place learning) versus sham-operated controls, day 8: significantly different from sham-operated controls
[1]; 1.0 mg/kg at 30 min following CCI, day 9 (third day of training), p>0.05, out-performing saline-treated
  latency to find hidden platform (place learning) versus sham-operated controls, day 9: no longer significantly different from sham-operated controls
[1]; 1.0 mg/kg at 30 min following CCI, day 10, p<0.01
  latency to find goal platform (place learning) versus saline-treated injured mice, last day of training: significantly improved latencies
[1]; 0.1, 1.0 or 10.0 mg/kg at 60 min following CCI, 10 days post-surgery, all treatment groups
  place-learning compared with saline-treated controls (CCI+saline), dose-response experiments: improved place-learning
[1]; 0.1, 1.0 or 10.0 mg/kg at 60 min following CCI, by 10 days post-surgery
  dose giving the most improved learning (place learning watermaze): 10 mg/kg
[2]; 1 mg/kg i.v. at 30 min following CCI
  beam walking, time course of recovery of function: began to show some recovery of function after 3 days
[2]; 1 mg/kg i.v. at 30 min following CCI, 14 days following injury, p<0.05
  beam walking performance (right hindlimb footfaults) compared with saline-treated injured animals: significant improvement in performance
[2]; 1 mg/kg i.v. at 30 min following CCI, 21 days post-injury, p<0.01
  beam walking outcome (right hindlimb footfaults) compared with saline-treated animals: continued improvement in outcome
[2]; 0.1, 1.0 or 10.0 mg/kg at 60 minutes following CCI
  dose with optimal effects in beam walking (inverted U-shaped dose-response curve): 1 mg/kg
